The results in this text go back to BindingDB's records for doi:10.1016/j.ejmech.2011.02.013 (King Saud University, 2011).

SMILES strings stand for the structures.

The experiment concerns the target T1, Prostaglandin G/H synthase 1 (Ovis aries, UniProt P05979).
T1 sequence (P05979 whole entry): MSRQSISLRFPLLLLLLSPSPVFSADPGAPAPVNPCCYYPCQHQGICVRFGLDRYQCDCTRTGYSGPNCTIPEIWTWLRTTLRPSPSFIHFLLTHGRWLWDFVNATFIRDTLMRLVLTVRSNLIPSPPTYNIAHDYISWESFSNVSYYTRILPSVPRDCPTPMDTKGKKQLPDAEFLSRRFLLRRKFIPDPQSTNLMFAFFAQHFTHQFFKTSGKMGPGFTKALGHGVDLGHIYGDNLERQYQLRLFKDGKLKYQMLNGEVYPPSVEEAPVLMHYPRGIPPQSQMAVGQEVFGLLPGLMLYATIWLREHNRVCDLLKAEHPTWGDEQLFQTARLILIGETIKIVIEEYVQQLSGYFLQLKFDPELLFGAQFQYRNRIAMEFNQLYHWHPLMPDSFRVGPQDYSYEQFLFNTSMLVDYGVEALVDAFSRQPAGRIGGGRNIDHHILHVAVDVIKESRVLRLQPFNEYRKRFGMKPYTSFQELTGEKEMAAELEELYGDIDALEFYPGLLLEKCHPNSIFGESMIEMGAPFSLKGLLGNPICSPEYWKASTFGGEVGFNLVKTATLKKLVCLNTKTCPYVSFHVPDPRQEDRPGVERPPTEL
The experiment in a line: Inhibition of ovine COX1 after 5 mins by enzyme immunoassay.

In the case of `Oc1c2c(c(O)n1-c1cc(Cl)c(Cl)c(Cl)c1)C1(Cl)C(Cl)=C(Cl)C2(Cl)C1(Cl)Cl` [4,5,6,7,8,8-Hexachloro-2-(3,4,5-trichlorophenyl)-3a,4,7,7a-tetrahydro-1H-4,7-methanoisoindole-1,3(2H)-dione], the half-inhibitory concentration (IC50) is over 100 µM.

For the compound `COc1cc(-n2c(O)c3c(c2O)C2(Cl)C(Cl)=C(Cl)C3(Cl)C2(Cl)Cl)cc(OC)c1OC` [4,5,6,7,8,8-Hexachloro-2-(3,4,5-trimethoxyphenyl)-3a,4,7,7a-tetrahydro-1H-4,7-methanoisoindole-1,3(2H)-dione], the IC50 was over 100 µM.

The compound `Oc1ccc(O)n1-c1cc(Cl)c(Cl)c(Cl)c1` [1-(3,4,5-trichlorophenyl)pyrrolidine-2,5-dione] yielded an IC50 of over 100 µM.

Compound `COc1cc(-n2c(O)ccc2O)cc(OC)c1OC` [1-(3,4,5-Trimethoxyphenyl)pyrrolidine-2,5-dione] displayed a half-maximal inhibitory concentration (IC50) of over 100 µM.

The compound `COc1cc(-n2c(O)c3c(c2O)CC=CC3)cc(OC)c1OC` [cis-2-(3,4,5-Trimethoxyphenyl)-3a,4,7,7a-tetrahydro-1H-isoindole-1,3(2H)-dione] yielded a 50% inhibitory concentration (IC50) of over 100 µM.

As to `Oc1c2c(c(O)n1-c1cc(Cl)c(Cl)c(Cl)c1)CC=CC2` [cis-2-(3,4,5-Trichlorophenyl)-3a,4,7,7a-tetrahydro-1H-isoindole-1,3(2H)-dione], the half-inhibitory concentration (IC50) was over 100 µM.
